Test results reported in article PMC10629583, “Specific inhibition of an anticancer target, polo-like kinase 1, by allosterically dismantling its mechanism of substrate recognition” (Proceedings of the National Academy of Sciences of the …, 2023).
Entries after “also recorded” stand apart in the source; their conditions may differ.

Assays:
[1] = system: 45 receptors and channels; experiment: PDSP off-target screen (whole panel); format: binding, human
From the text: (§1) PDSP no. Compound Interactions (Ki, µM)
(§2) 60477 Allopole-A None observed.
(§3) trigger a secondary screen at that receptor.

[2] = target: T1, 5-HT1D (Homo sapiens, UniProt P28221); experiment: PDSP off-target binding screen; conditions: for inhibition at 10 µM: read-out: Primary screen AVE(%inhib)±SD; for Ki: read-out: Secondary screen Ki
T1 construct: NIMH Psychoactive Drug Screening Program (UNC)
From the text: as §1, §2, §3

[3] = target: T2, 5-HT6 (Homo sapiens, UniProt P50406); experiment: PDSP off-target binding screen; conditions: for inhibition at 10 µM: read-out: Primary screen AVE(%inhib)±SD; for Ki: read-out: Secondary screen Ki
T2 construct: NIMH Psychoactive Drug Screening Program (UNC)
From the text: as §1, §2, §3

[4] = target: T3, Alpha1A (Homo sapiens, UniProt P35348); experiment: PDSP off-target binding screen; conditions: for inhibition at 10 µM: read-out: Primary screen AVE(%inhib)±SD; for Ki: read-out: Secondary screen Ki
T3 sequence (P35348 1-466): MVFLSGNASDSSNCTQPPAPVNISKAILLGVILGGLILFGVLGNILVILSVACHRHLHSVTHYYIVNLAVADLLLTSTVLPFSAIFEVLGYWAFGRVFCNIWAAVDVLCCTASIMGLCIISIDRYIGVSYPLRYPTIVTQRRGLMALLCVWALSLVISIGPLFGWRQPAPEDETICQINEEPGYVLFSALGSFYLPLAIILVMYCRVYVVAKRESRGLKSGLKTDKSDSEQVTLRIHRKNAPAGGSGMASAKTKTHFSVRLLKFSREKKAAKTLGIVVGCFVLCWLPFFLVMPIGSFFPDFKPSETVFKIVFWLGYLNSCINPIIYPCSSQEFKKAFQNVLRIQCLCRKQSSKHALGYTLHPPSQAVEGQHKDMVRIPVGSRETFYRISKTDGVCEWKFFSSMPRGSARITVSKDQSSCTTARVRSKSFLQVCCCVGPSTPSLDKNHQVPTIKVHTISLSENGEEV
From the text: as §1, §2, §3

[5] = target: T4, Alpha1B (Homo sapiens, UniProt P35368); experiment: PDSP off-target binding screen; conditions: for inhibition at 10 µM: read-out: Primary screen AVE(%inhib)±SD; for Ki: read-out: Secondary screen Ki
T4 sequence (P35368 1-520): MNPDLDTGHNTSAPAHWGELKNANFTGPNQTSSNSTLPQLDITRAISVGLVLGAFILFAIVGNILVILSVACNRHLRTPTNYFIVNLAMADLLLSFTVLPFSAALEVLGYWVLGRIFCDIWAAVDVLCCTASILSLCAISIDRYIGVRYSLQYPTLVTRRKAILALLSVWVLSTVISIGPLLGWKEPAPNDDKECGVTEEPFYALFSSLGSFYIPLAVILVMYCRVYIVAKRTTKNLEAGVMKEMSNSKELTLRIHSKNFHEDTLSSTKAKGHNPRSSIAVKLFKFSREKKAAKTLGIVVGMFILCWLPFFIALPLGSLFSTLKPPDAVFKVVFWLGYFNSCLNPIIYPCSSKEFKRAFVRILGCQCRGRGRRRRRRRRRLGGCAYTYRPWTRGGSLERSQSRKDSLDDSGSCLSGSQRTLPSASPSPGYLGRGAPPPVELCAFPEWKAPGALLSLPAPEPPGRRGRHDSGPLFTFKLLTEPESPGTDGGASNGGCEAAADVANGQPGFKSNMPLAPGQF
From the text: as §1, §2, §3

[6] = target: T5, Alpha2B (Homo sapiens, UniProt P18089); experiment: PDSP off-target binding screen; conditions: for inhibition at 10 µM: read-out: Primary screen AVE(%inhib)±SD; for Ki: read-out: Secondary screen Ki
T5 sequence (P18089 1-450): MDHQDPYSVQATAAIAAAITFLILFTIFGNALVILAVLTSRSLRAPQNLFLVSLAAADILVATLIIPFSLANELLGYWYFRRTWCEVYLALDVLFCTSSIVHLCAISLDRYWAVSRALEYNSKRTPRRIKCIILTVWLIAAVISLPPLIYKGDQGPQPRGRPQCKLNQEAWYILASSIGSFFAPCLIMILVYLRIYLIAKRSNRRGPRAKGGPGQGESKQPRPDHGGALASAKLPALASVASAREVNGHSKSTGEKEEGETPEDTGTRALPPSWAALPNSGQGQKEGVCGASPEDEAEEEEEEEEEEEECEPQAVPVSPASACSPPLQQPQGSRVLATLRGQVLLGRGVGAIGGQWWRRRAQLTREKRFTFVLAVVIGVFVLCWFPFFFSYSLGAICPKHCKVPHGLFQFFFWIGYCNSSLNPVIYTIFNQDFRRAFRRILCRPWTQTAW
From the text: as §1, §2, §3

[7] = target: T6, Alpha2C (Homo sapiens, UniProt P18825); experiment: PDSP off-target binding screen; conditions: for inhibition at 10 µM: read-out: Primary screen AVE(%inhib)±SD; for Ki: read-out: Secondary screen Ki
T6 sequence (P18825 1-462): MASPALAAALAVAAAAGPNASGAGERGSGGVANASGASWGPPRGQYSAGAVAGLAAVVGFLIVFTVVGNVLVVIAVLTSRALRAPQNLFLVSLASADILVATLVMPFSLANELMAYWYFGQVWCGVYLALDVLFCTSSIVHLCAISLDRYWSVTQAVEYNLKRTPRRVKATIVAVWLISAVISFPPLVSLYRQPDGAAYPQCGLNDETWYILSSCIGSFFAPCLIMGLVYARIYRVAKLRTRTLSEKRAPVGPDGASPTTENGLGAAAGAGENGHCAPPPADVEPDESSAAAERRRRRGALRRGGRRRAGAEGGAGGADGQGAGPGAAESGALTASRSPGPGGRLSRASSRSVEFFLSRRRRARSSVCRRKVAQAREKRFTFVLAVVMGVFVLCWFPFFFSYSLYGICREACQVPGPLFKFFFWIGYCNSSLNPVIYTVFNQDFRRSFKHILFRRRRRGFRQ
From the text: as §1, §2, §3

[8] = target: T7, D4 (Homo sapiens, UniProt P21917); experiment: PDSP off-target binding screen; conditions: for inhibition at 10 µM: read-out: Primary screen AVE(%inhib)±SD; for Ki: read-out: Secondary screen Ki
T7 sequence (P21917 1-419): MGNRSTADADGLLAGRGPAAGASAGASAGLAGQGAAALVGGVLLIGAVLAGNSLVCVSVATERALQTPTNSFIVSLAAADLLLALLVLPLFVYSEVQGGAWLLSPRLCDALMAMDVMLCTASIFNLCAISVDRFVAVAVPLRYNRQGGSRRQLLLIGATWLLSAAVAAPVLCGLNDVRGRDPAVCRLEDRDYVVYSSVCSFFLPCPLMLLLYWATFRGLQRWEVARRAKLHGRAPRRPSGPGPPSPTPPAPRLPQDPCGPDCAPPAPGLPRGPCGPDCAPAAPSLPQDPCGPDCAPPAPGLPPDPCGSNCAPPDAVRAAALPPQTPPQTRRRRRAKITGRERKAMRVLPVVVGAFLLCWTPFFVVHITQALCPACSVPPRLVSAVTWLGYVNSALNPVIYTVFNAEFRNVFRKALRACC
From the text: as §1, §2, §3

[9] = target: H2 (Homo sapiens, UniProt P25021); experiment: PDSP off-target binding screen; conditions: for inhibition at 10 µM: read-out: Primary screen AVE(%inhib)±SD; for Ki: read-out: Secondary screen Ki
From the text: as §1, §2, §3

[10] = target: Sigma 2 (Homo sapiens, UniProt Q5BJF2); experiment: PDSP off-target binding screen; conditions: for inhibition at 10 µM: read-out: Primary screen AVE(%inhib)±SD; for Ki: read-out: Secondary screen Ki
From the text: as §1, §2, §3

T2 sequence (P50406 whole entry): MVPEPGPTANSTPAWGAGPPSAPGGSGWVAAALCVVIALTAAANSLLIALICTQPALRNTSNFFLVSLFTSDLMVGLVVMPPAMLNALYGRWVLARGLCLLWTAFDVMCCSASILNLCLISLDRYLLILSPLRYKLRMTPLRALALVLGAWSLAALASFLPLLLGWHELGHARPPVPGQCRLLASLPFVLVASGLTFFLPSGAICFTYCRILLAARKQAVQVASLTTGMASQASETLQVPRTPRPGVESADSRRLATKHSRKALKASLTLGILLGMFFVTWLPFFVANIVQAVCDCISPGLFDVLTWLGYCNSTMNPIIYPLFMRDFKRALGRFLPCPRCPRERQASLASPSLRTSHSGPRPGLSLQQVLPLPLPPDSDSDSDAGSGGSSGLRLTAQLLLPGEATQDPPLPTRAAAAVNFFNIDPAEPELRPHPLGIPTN
T1 sequence (P28221 whole entry): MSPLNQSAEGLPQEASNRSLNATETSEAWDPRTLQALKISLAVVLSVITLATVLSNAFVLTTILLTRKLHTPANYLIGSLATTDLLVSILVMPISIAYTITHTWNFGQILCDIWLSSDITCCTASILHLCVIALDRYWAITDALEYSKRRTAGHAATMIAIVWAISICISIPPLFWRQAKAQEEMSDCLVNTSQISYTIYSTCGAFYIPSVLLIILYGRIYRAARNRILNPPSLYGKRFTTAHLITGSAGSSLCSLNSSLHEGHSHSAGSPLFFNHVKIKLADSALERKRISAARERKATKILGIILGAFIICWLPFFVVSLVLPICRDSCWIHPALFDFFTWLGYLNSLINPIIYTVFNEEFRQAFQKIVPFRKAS
Sigma 2, sequence (Q5BJF2 whole entry): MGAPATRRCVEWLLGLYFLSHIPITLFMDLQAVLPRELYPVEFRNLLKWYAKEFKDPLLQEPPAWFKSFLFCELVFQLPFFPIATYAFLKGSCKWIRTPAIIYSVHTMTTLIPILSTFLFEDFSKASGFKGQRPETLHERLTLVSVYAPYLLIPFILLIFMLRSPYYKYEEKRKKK
H2, sequence (P25021 whole entry): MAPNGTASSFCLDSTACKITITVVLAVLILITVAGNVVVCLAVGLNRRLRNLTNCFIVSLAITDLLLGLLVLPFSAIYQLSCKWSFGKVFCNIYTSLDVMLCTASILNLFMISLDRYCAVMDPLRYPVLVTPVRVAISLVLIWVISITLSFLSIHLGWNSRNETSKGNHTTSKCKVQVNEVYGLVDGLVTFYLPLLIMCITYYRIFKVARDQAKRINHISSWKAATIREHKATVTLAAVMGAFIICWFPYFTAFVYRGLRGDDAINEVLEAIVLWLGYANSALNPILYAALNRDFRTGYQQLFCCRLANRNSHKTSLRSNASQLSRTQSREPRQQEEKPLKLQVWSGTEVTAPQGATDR

| Structure (SMILES) | Interactions (Ki, µM), summary of PDSP screen (in words) [1] | inhibition at 10 µM [2] | Ki [2] | inhibition at 10 µM [3] | Ki [3] | inhibition at 10 µM [4] | Ki [4] | inhibition at 10 µM [5] | Ki [5] | inhibition at 10 µM [6] | Ki [6] | inhibition at 10 µM [7] | Ki [7] | inhibition at 10 µM [8] | Ki [8] | inhibition at 10 µM [9] | Ki [9] | inhibition at 10 µM [10] | Ki [10] |
| --- | --- | --- | --- | --- | --- | --- | --- | --- | --- | --- | --- | --- | --- | --- | --- | --- | --- | --- | --- |
| O=c1c2sc(Cl)cc2n2c(=S)[nH]nc2n1CC1CC1 [Allopole-A] | None observed; also recorded: no interactions | 22.5 ± 25.6% | > 10 µM | -5 ± 11.7% | > 10 µM | -9.4 ± 18% | > 10 µM | -7.7 ± 9.7% | > 10 µM | -6.4 ± 7.1% | > 10 µM | 10.6 ± 4.2% | > 10 µM | -24.3 ± 4.4% | > 10 µM | -27.4 ± 17.1% | > 10 µM | 40.6 ± 9.5% | > 10 µM |
| Cn1cnc([N+](=O)[O-])c1Sc1nnc2n(CC3CC3)c(=O)c3sc(Cl)cc3n12 [Allopole] | only two weak µM interactions | 32.8 ± 27.1% | > 10 µM | 21.9 ± 15.6% | > 10 µM | 40.6 ± 10.5% | > 10 µM | -1.6 ± 9.5% | > 10 µM | 8.3 ± 16.4% | > 10 µM | 6.4 ± 7.5% | > 10 µM | 12.6 ± 4.9% | > 10 µM | -16.4 ± 21.5% | > 10 µM | 40.7 ± 5.8% | > 10 µM |
